The values below come from patent US6440406B1, “Attractant for monitoring and control of adult scarabs” (The United States of America as represented by the …, priority 1997, dated 2002).

What all share (format): in vivo
One test concerns Cotinis nitida. In words: Field trap capture, College Station, TX. To be noted: number of incidents over the study where more than one target insect was trapped (male and female, 4 repetitions). The procedure:
(§1) The mixture of all five volatile components, prepared as described in Lopez et al. (U.S. patent application Ser. No. 09/166,655, filed Oct. 5, 1998) was evaluated as an attractant for scarabs. Evaluations using the mixture in traps were conducted at various sites at Dallas, Tex., adjacent to corn or cotton fields in an agricultural area SW of College Station, Tex., and in different habitats at various locations in Mexico. The primary trap used was the Trece Catch Can with a yellow top and a green catch container obtained from Trece, Inc., Salinas, Calif. At College Station only, wire cone traps originally designed to capture noctuid moths (Hartstack et al., Jour. Econ. Entomol., 72:319-322, 1979) were also used in the evaluations. The traps were operated about 1 meter above ground level and were spaced at different distances based on the amount of space available in which to conduct the evaluations. Treatments were assigned to traps in trap lines either randomly or rotated every time the traps were checked to minimize trap location effects. Attractants for evaluation were dispensed primarily from sintered polyethylene to which the attractant was added until saturated. The sintered polyethylene was placed in various plastic containers to facilitate placing on the traps for evaluation. At College Station only, cotton dental wicks were used to dispense the attractants for evaluation by applying the attractants mixed with methylene chloride as a solvent. Traps were checked as appropriate based on the number of numbers of scarabs trapped.
(§2) The volatile components were evaluated individually and in combination for efficacy for capturing scarabs. The evaluations were conducted as described in Example 1 near College Station, Tex., and Dallas, Tex., except that the volatile components were assayed individually as well.
(§3) In the College Station, Tex., data, the numbers represent the frequencies or number of incidents, over the course of the study, where more than one target insect was trapped (male and female, 4 repetitions). The Dallas, Tex., data represents the numbers of males/females captured. Abbreviations for the active agents tested are as follows: Mix M=five component mixture as described in Example 1, MMB=methyl-2-methoxybenzoate, MS=methyl salicylate, PA=phenylacetaldehyde, PE=2-phenylethanol, PEG=Japanese Beetle Lure, and SL=limonene.

The subject of a further test is Euphoria sedpulcralis. Briefly: Field trap capture, College Station, TX. The following applies: number of incidents over the study where more than one target insect was trapped (male and female, 4 repetitions). The procedure:
as §1, §2, §3

Another test relates to Phyllophaga congrua. Briefly: Field trap capture, Dallas, TX. The following applies: baited traps. The procedure:
as §1, §2, §3

The subject of another test is Phyllophaga crassissima. Briefly: Field trap capture, Dallas, TX. The following applies: baited traps. The procedure: as §1, §2, §3
Another test has as its system Phyllophaga crinita. In words: Field trap capture, Dallas, TX. To be noted: baited traps. The procedure: as §1, §2, §3

Take `COC(=O)c1ccccc1OC` [MMB, methyl-2-methoxybenzoate]: the “Frequencies of trapping > 1 beetle” value stood at 1 in the test with Cotinis nitida and 0 in the test with Euphoria sedpulcralis. For the same molecule, the no. females captured with Phyllophaga congrua was found to be 3; in the test with Phyllophaga crassissima, 11; in the test on Phyllophaga crinita, 7. In addition, the figures for the no. males captured in the test with Phyllophaga congrua, in the test with Phyllophaga crassissima and with Phyllophaga crinita were 0, 16 and 8627, respectively.

Consider `COC(=O)c1ccccc1O` [MS, methyl salicylate], for which the “Frequencies of trapping > 1 beetle” value in the test with Cotinis nitida and in the test on Euphoria sedpulcralis was 0 in each case. Moreover, the no. females captured in the test on Phyllophaga congrua stood at 0; in the test with Phyllophaga crassissima, 10; in the test with Phyllophaga crinita, 0. Moreover, the values for the no. males captured in the test with Phyllophaga congrua, with Phyllophaga crassissima and in the test with Phyllophaga crinita were 4, 6 and 23, respectively.

Consider `O=CCc1ccccc1` [PA, phenylacetaldehyde], for which the “Frequencies of trapping > 1 beetle” value is recorded as 13 with Cotinis nitida and 1 in the test with Euphoria sedpulcralis. In addition, the no. females captured was found to be 1 in the test on Phyllophaga congrua, 3 with Phyllophaga crassissima and 1 with Phyllophaga crinita. For the same molecule, the figures for the no. males captured in the test with Phyllophaga congrua, in the test on Phyllophaga crassissima and in the test with Phyllophaga crinita were 5, 9 and 16, respectively.

Take `C=C(C)[C@H]1CC=C(C)CC1` [SL, limonene]: the “Frequencies of trapping > 1 beetle” value in the test with Cotinis nitida and in the test with Euphoria sedpulcralis was 0 throughout. In addition, the no. females captured turned out to be 2 with Phyllophaga congrua, 3 in the test on Phyllophaga crassissima and 3 in the test with Phyllophaga crinita. Also, the no. males captured is listed as 1 with Phyllophaga congrua, 4 with Phyllophaga crassissima and 32 in the test with Phyllophaga crinita.

Regarding `CC=Cc1ccc(OC)cc1` [Anethol, reference compound], the “Frequencies of trapping > 1 beetle” value is 1 in the test with Cotinis nitida and 0 with Euphoria sedpulcralis. Besides, the values for the no. females captured in the test on Phyllophaga congrua, with Phyllophaga crassissima and with Phyllophaga crinita were 3, 56 and 0, respectively. Moreover, the results for the no. males captured with Phyllophaga congrua, in the test on Phyllophaga crassissima and in the test with Phyllophaga crinita were 0, 79 and 14, respectively.

With `OCCc1ccccc1` [PE, 2-phenylethanol], the “Frequencies of trapping > 1 beetle” value was determined as 2 in the test on Cotinis nitida and 0 with Euphoria sedpulcralis. The no. females captured in the test with Phyllophaga congrua amounted to 2; in the test on Phyllophaga crassissima it was 5; with Phyllophaga crinita it was 1. Also, the no. males captured in the test on Phyllophaga congrua was 5; in the test with Phyllophaga crassissima, 8; in the test on Phyllophaga crinita, 11.
